Each structure is given as a SMILES string.

Three compounds from patent publication US11786532B2, “2-pyridones and methods of use thereof” (ALIGOS THERAPEUTICS, INC., priority 2020, dated 2023) can be followed below.

This assay has as its target T1, human thyroid receptor beta ligand-binding domain (THR-beta) (Homo sapiens, UniProt P10828).
T1 sequence (P10828 217-461 limits assumed): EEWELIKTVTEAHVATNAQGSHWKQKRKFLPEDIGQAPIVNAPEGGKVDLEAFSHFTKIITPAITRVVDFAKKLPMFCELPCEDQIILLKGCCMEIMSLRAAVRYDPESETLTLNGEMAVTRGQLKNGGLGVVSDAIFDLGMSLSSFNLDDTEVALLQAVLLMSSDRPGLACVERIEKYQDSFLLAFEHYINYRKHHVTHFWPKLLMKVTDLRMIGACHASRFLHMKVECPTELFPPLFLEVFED
Nature of the assay: THR Biochemical Assay (Assay 1): TR-FRET thyroid receptor beta coactivator assay. Conditions: TR-FRET SRC2-2 coactivator recruitment, GST-tagged THR-beta LBD 1 nM, 1 hr at rt; read-out: Assay 1 (EC50, THR-beta agonist activity). An excerpt: THR Biochemical Assay (Assay 1)
The TR-FRET thyroid receptor beta coactivator assay is to be used. The assay uses a terbium-labeled anti-GST antibody, a glutathione-S-transferase (GST) tagged human thyroid receptor, beta or alpha, ligand-binding domain (LBD), and a fluorescein labeled SRC2-2 coactivator peptide. The antibody interacts with the LBD, where the agonist will also bind, resulting in increased affinity for the SRC2-2 coactivator peptide causing energy transfer of the acceptor fluorophore and a FRET emission shift from 495 to 520 nm. The energy transfer is detected as an increase in the fluorescence emission of the fluorescein acceptor, and a decrease in the fluorescence emission of the terbium donor. The assay is to be performed in a 384-well black plate in a final volume of 20 μL. Serial dilution of various test agonists will be performed in DMSO (1% final DMSO concentration) and added to the test plate. Thyroid receptor beta LBD will usually be added to the plate at a final concentration of 1 nM, followed by the mixture of the fluorescein labeled SRC2-2 coactivator peptide, and the terbium-labeled anti-GST antibody at final concentrations of 200 nM and 2 nM respectively. The assay will often be incubated for 1 hr at rt protected from light. The TR-FRET will then be measured on a Victor multilabel reader (Perkin Elmer) using an excitation wavelength of 340 nm with emission filters of 495 nm and 520 nm. The assay will be quantified by expressing a ratio (520:495) of the intensities, and the resulting activation curves; EC50 values are to be generated using a sigmoidal dose response (variable slope) equation in GraphPad™ Prism 8.0.
In general terms: TR-FRET usually uses a lanthanide donor and a delayed reading to cut background.
As usually defined, the EC50 is the concentration at which the effect is half-maximal. For `CC1CCc2c(Oc3c(Cl)cc(-n4nc(N)c(=O)[nH]c4=O)cc3Cl)c[nH]c(=O)c21` (stereo not drawn) [Example 15, 6-amino-2-[3,5-dichloro-4-[(7-methyl-1-oxo-2,5,6,7-tetrahydrocyclopenta[c]pyridin-4-yl)oxy]phenyl]-1,2,4-triazine-3,5-dione], the EC50 was in the range of 250 to 1000 nM.

In the case of `CC(C)c1cc(Oc2c(Cl)cc(NC(=O)C(=O)O)cc2Cl)c[nH]c1=O` [Compound 4, 2-((3,5-dichloro-4-((5-isopropyl-6-oxo-1,6-dihydropyridin-3-yl)oxy)phenyl)amino)-2-oxoacetic acid], the EC50 lay within 50 to 250 nM.

Regarding `CC(C)n1cc(Oc2c(Cl)cc(NC(=O)c3noc(=O)[nH]3)cc2Cl)ccc1=O` [Compound 6, N-(3,5-dichloro-4-((1-isopropyl-6-oxo-1,6-dihydropyridin-3-yl)oxy)phenyl)-5-oxo-4,5-dihydro-1,2,4-oxadiazole-3-carboxamide], the EC50 is 50 to 250 nM.
